Source: article PMC9504018, “The hEag1 K^+ Channel Inhibitor Astemizole Stimulates Ca^2+ Deposition in SaOS-2 and MG-63 Osteosarcoma Cultures” (International Journal of Molecular Sciences, 2022)

Target: T1, hEag1 (Kv10.1) (Homo sapiens, UniProt O95259)
T1 construct: gene KCNH1
T1 sequence (O95259 1-989): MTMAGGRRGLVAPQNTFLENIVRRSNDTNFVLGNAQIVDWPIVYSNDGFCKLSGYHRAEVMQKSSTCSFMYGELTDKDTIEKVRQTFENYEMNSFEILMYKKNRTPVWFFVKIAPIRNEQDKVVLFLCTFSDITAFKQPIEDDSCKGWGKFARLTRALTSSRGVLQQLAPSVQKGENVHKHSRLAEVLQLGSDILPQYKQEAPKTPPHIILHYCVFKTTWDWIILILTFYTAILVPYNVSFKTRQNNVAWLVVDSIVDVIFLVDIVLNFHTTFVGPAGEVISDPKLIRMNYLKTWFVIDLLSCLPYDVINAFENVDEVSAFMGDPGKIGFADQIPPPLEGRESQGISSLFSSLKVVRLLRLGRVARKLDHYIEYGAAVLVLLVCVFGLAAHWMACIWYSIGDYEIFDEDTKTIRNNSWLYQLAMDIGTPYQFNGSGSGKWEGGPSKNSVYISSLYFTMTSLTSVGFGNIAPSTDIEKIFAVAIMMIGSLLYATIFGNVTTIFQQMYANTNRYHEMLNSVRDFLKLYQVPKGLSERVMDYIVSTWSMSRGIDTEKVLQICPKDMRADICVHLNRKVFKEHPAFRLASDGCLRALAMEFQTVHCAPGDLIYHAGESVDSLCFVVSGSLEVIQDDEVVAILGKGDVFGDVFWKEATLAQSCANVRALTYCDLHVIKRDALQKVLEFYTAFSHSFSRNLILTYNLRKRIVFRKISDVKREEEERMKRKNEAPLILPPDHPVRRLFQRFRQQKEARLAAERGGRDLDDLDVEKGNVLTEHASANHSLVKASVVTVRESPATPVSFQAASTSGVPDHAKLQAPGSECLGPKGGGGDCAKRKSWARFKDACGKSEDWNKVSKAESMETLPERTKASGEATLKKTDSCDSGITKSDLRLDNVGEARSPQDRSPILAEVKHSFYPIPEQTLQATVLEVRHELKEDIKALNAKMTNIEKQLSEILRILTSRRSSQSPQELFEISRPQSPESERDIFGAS
Experiment: whole-cell patch clamp of the endogenous current in SaOS-2 cells, six-dose concentration-response
Format: cell-based

Compound `COc1ccc(CCN2CCC(Nc3nc4ccccc4n3Cc3ccc(F)cc3)CC2)cc1` [astemizole] has an IC50 of about 135 nM.
